Results taken from ChEMBL document CHEMBL1148982, “Novel cytotoxic thiodiketopiperazine derivatives from a Tilachlidium sp” (2004).

test system: P388; experiment: Cytotoxicity against mouse P388 cells after 1 to 11 days by MTT assay; type: functional; settings: read-out: ID50 (the source's name)

Structure (SMILES)	IC50 [nM]
CN1C(=O)[C@]23SSS[C@]1(CO)C(=O)N2[C@H]1Nc2ccccc2[C@@]1(c1c[nH]c2ccccc12)[C@@H]3O	250
CN1C(=O)[C@]23SS[C@]1(CO)C(=O)N2[C@H]1Nc2ccccc2[C@@]1(c1c[nH]c2ccccc12)[C@@H]3O [T988 C]	560
CS[C@@]1(CO)C(=O)N2[C@H]3Nc4ccccc4[C@@]3(c3c[nH]c4ccccc34)[C@H](O)[C@]2(SC)C(=O)N1C [T988 B]	2180
